The text below walks through data of publication PMC8110578, “Phenylethynylbenzyl-modified biguanides inhibit pancreatic cancer tumor growth” (Scientific Reports, 2021).

The test system of one data set is cancer cells. The conditions noted are these: cited from earlier work.
In a further data set the test system is red blood cells. Put plainly: Hemolytic activity of PEB-biguanidium salts. The format is cell-based. As to conditions: red blood cells 2% v/v in PBS, 1 h at 37 °C. As for the experimental part: The toxicity of PEB-Biguanidiums salts was estimated through their hemolytic activity by incubating red blood cells (RBC) with the compounds for 1 h (See Supplementary Table S13 and Supplementary Fig. S29).
Experimental. Red blood cells in Alsever’s solution were centrifuged for 10 min at 300g, washed 3 times with PBS buffer, and resuspended in PBS at 2% v/v. To each well of a 96-well plate, 195 µL of red blood cell solution and 5 µL of biguanidium salt in DMSO were added, and the plate was incubated with light agitation for 1 h at 37 °C. The plate was then centrifuged for 10 min at 300g, and 50 µL of the supernatant solution of each well was transferred to another plate. Absorbance was measured at λ = 405 nm. Each measurement was performed in triplicate in three different experiments.

Data set [1] deals with NAD+/NADH ratio in KP4 cells. Put plainly: NAD/NADH quantification, KP4 cells. The data set is classed as cell-based, human. As for the experimental part: All chemicals were purchased from Aldrich Chemicals in their highest purity and used without further purification. Deuterated dimethylsulfoxide (DMSO-d^6) and deuterated chloroform (CDCl3) were purchased from CDN Isotopes. NMR spectra were recorded on Bruker advance 400 and 100 spectrometers. Coupling constants are given in hertz (Hz) and chemical shifts are given in parts per million (ppm, δ) measured relative to the residual solvent (the multiplicity of the signals are given as s: singlet, d: doublet, t: triplet, and m: multiplet). High-resolution mass spectra (HRMS) were recorded on a TSQ Quantum Ultra (Thermo Scientific) triple quadrupole with accurate mass option instrument (Université de Montréal Mass Spectrometry Facility). […] Transport and depolarization studies as well as absorbance measurements were performed on a Varian Cary Eclipse fluorescence spectrophotometer. The hemolysis assays were performed on a Fluostar Optima plate reader. […] A suitable crystal was selected and analysed on a Bruker Venture Metaljet diffractometer. Crystal violet retention assay was used for cell growth assays and IC50 were determined using Prism (GraphPad). NAD/NADH quantitation colorimetric kit (#K337-100) from Biovision was used according to manufacturer’s instructions. ECAR (extracellular acidification rate) and OCR of KP4 cells (oxygen consumption rate) were measured on a Seahorse XF-24 (Agilent). […]

Data set [2] relates to HPNE cells (normal immortalized pancreatic epithelial cells). Put plainly: Growth assay (crystal violet), HPNE cells. The format is cell-based, human. As to conditions: 3 days treatment, crystal violet retention assay. On the procedure: . The IC50 of most of the synthetic biguanides in HPNE cells was higher than for cancer cells (Supplementary Table S12).
All chemicals were purchased from Aldrich Chemicals in their highest purity and used without further purification. Deuterated dimethylsulfoxide (DMSO-d^6) and deuterated chloroform (CDCl3) were purchased from CDN Isotopes. NMR spectra were recorded on Bruker advance 400 and 100 spectrometers. Coupling constants are given in hertz (Hz) and chemical shifts are given in parts per million (ppm, δ) measured relative to the residual solvent (the multiplicity of the signals are given as s: singlet, d: doublet, t: triplet, and m: multiplet). High-resolution mass spectra (HRMS) were recorded on a TSQ Quantum Ultra (Thermo Scientific) triple quadrupole with accurate mass option instrument (Université de Montréal Mass Spectrometry Facility). MS experiences were performed using an UltrafleXtreme MALDI TOF/TOF mass spectrometer equipped with a SmartBeam II Nd:Yag/355 nm laser operating at 1 kHz and providing a laser focus down to 20 μm in diameter (Bruker Daltonics, Billerica, MA). The data acquisition for MS was performed in positive ion mode using the linear geometry with flexControl 3.4 (Bruker Daltonics, Billerica, MA). Acceleration voltage was set to + 25 kV and all other instrumental parameters (delayed extraction parameters, source voltages, detector gain, laser energy, etc.) were optimized for maximum S/N for the drug compounds. L-α-Phosphatidylcholine was purchased from Avanti Polar Lipids. Transport and depolarization studies as well as absorbance measurements were performed on a Varian Cary Eclipse fluorescence spectrophotometer. The hemolysis assays were performed on a Fluostar Optima plate reader. Single crystals of C18H18F3N5O3S were obtained from chloroform. A suitable crystal was selected and analysed on a Bruker Venture Metaljet diffractometer. Crystal violet retention assay was used for cell growth assays and IC50 were determined using Prism (GraphPad). NAD/NADH quantitation colorimetric kit (#K337-100) from Biovision was used according to manufacturer’s instructions. ECAR (extracellular acidification rate) and OCR of KP4 cells (oxygen consumption rate) were measured on a Seahorse XF-24 (Agilent).
Experimental. KP4 (Riken RCB1005) and PSN1 (ATCC: CRM-CRL-3211), were cultured in Dulbecco's modified Eagle's medium (DMEM) (Wisent, St-Bruno, QC) supplemented with 10 % of fetal bovine serum (FBS) (Wisent). HPNE hTERT (ATCC: CRL1423) were cultured in a mix of 75% DMEM without glucose (Sigma Cat#. D-5030) with additional 2 mM L-glutamine and 1.5 g/L sodium bicarbonate, 25% Medium M3 Base (Incell Corp. Cat# M300F- 500), fetal bovine serum 5% (wisent 10 ng/ml human recombinant EGF (Sigma-Aldrich), 5.5 mM D-glucose (Sigma-Aldrich), 750 ng/ml puromycin (Sigma-Aldrich). For dose-response assays, cells were seeded in 96 well plates (company). After 24 h, treatments were applied and cells were grown for 3 more days. Crystal violet retention assay used for cell growth assays were described previously^2. The data is expressed as relative absorbance of crystal violet extracted from the cells and diluted in 10 % acetic acid. IC50 were determined using Prism (GraphPad). Tumor spheres were grew according to Ferbeyre et al^3.

A further data set relates to HPNE-hTERT cells. As to the kind of experiment: Cell death assay (trypan blue), HPNE-hTERT cells. The data set is classed as cell-based, human. As to conditions: 15 µM for 24 h. From the text:
Figure 3 Effects of biguanides on cell proliferation and viability in pancreatic cancer cells. […]. […] | decimal sign comma or point
(§1) Experimental. […] At the end of the treatments, adherent cells were recovered by trypsinization, along with floating cells recovered by centrifugation of the culture medium. Floating and adherent cells were pooled together. The faction of dead cells was quantified by counting the proportion of trypan blue-positive (dead cells) and the proportion of living cells (trypan blue-negative).

Another data set has as its system KP4 cells. Put plainly: Cell death assay (trypan blue), KP4 cells. The format is cell-based, human. The conditions noted are these: 15 µM for 24 h.
Source text: as §1

Data set [3] concerns mitochondria of KP4 cells expressing pMXs-3XHA-EGFP-OMP25. Put plainly: Mitochondrial permeation and accumulation (anti-HA IP, MALDI-MS). As to conditions: 15 µM, 3 h. The data set is classed as cell-based, human. On the procedure:
Figure 2 (A) Partition of compounds in an U-tube experiment. Concentration of biguanide on the trans-side of the U-tube at 48 h and 72 h at 25 °C, after addition of 250 µM of biguanide on the cis-side. (B) Variation in the internal pH of HPTS-containing EYPC liposomes. Intravesicular solution: 1 mM HPTS, 10 mM HEPES, and 100 mM NaCl, adjusted to pH = 7.4, and extravesicular solution: 10 mM HEPES and 100 mM NaCl, adjusted to pH = 7.4. Biguanidiums were injected after 50 s at 5 mM (50 mol% relative to the 10 mM EYPC concentration), a NaOH pulse was induced at 300 s, and the liposomes were lysed with Triton-X at 550 s. Each curve is the average of three independent measurements. (C) Fluorescence of safranin O in the EYPC liposomes. Biguanidium salts were injected at 5 mM (50 mol% relative to the 10 mM EYPC concentration) at 50 s. Each curve is the average of three independent measurements. […] Mitochondrial isolation was performed according to the previously reported protocol.

Regarding `CN(C)C(=N)NC(=N)N` [metformin, 1,1-dimethylbiguanide, reference compound], the “Reported antiproliferative concentration in vitro” value with cancer cells is given as 5 mM.
Consider `N=C(N)NC(=N)NCc1ccc(C#Cc2ccccc2)cc1` [1b, 4-(phenylethynyl)benzylbiguanide], for which, in the data set with red blood cells, the “HC 10% (µM)” value was > 227 µM and the “HC 10% (µg/ml)” value was > 100 µg/mL. Further, in data set [1] (KP4 cells, 15 µM, 18 h), the “Decrease of NAD+/NADH ratio” value was 40%. The “Fold lower concentration than metformin for AMPK activation, decrease of NAD+/NADH ratio and mitochondrial respiration” value in data set [1] (abstract) stood at 800 fold. In data set [2], inhibition was half-maximal at 80.9 µM (IC50). In addition, in the data set on HPNE-hTERT cells, the “Effect on the fraction of dead HPNE cells” value is recorded as “did not increase the fraction of dead cells”. In the data set with KP4 cells, the “Increase of the fraction of dead KP4 cells” value is on record as ~ 20%. The Mitochondrial penetration entry in data set [3] is on record as “able to efficiently penetrate mitochondria”.

By IC50 is commonly meant the point on the concentration scale where inhibition reaches its midpoint. A higher IC50 goes with weaker potency in that assay.
